“Also recorded” adds a separate entry of the source.
Experiments:
[1] = system: CD3, CD4, CD8, MHC II and CD21 lymphocyte subpopulations; test: Leukocyte subsets in dogs by flow cytometry; type: in vivo, dog
Description: Leukocyte subset. Subpopulations of CD3 (total T), CD4 (Th), CD8 (Tc), MHC II (activated lymphocytes), and CD21 (mature B cells) were quantitated by flow cytometry on week 0, 6, 12 and 16 (Chew et al., 2000).

[2] = compared with other antioxidants (Naguib, 2000; Miki, 1991); cited from earlier work
[3] = Plasma astaxanthin in cats fed astaxanthin diets; type: in vivo, cat
Procedure: Female domestic short hair cats (8 to 9 months old; 3.2±0.04 kg body weight; Liberty Farms, Waverly, N.Y.) were randomly assigned (n=14/diet) to be fed 0, 1, 5, or 10 mg astaxanthin (109 g astaxanthin/kg oleoresin concentrate from Haematococcus pluvialis, astraZanthin™, La Haye Laboratories, Redmond, Wash.) daily (based on an average intake of 90 g food/day) for 12 weeks. Astaxanthin was incorporated into a commercial basal diet (The Iams Co., Lewisburg, Ohio.) and fed ad libitum. The diet composition was as follows (g/kg): 63.1 moisture, 350.6 protein, 62.7 ash, 213.6 fat, 10.0 Ca, 7.6 P, and 7.1 crude fiber, 21,707 kJ/kg gross energy; the n-6:n-3 fatty acid ratio was 9.9. Cats were housed in a temperature (20 to 22° C.) and light-controlled (14 hour light) facility and body weights were determined at weeks 0, 4, 8 and 12. Blood was collected at week 0 and 8 to assess immune function. To assess the dietary effects of astaxanthin on immune response after an antigenic challenge, all cats were vaccinated (Felocell™, Pfizer, N.Y.) two times (weeks 8 and 10) and blood was collected at week 12 to measure the same immune parameters.

[4] = system: Canine thyroid adenocarcinoma cells (target cells); test: Natural killer cell cytotoxic activity in dogs; type: in vivo, dog
Procedure: Natural killer cell cytotoxic activity. Canine thyroid adenocarcinoma cells (target cells) were resuspended to 2×10^5 cells/mL in Dulbecco's Modified Eagles Medium (Sigma, St. Louis, Mo.) containing 100 mL/L fetal bovine serum, 100 U/mL penicillin, and […] streptomycin sulfate. Ficol-separated PBMC (effector cells) were resuspended to 1×10^6 and 2×10^6 cells/mL and 100 microliters added to the target cells in 96-well flat-bottom plates to provide effector:taiget ratios of 5:1 and 10:1. After incubating for 8 h, 20 microliters (5 g/L) of MTT were added and incubated for 4 hours. The supernatant was removed and the formazan resuspended in 100 microliters isopropanol. Optical density was measured at 550 nm and the percent of specific cytotoxicity calculated as follows:
% Specific cytotoxicity=1−(ODeffector+target−ODeffector)/ODtarget×100.

Question: Which results are given for `CC1=C(/C=C/C(C)=C/C=C/C(C)=C/C=C/C=C(C)/C=C/C=C(C)/C=C/C2=C(C)C(=O)C(O)CC2(C)C)C(C)(C)CC(O)C1=O` (stereo not drawn) [astaxanthin, 3,3′-dihydroxy-beta, beta-carotene-4,4′-dione]?
Answer: population of B cells ([1]; 20 mg, post-vaccination week 16): showed the highest response; also recorded: highest B cell subpopulation; CD4 population ([1]; any time period): did not effect changes; CD8 population ([1]; any time period): did not effect changes; MHC class II population ([1]; any time period): did not effect changes; CD3 population ([1]; dogs fed 30 mg): transient decrease in the CD3 population; population of B cells ([1]; week 6 and 12, dose-dependent): generally increased the population of B cells; antioxidant activity against certain reactive oxygen species [2]: higher than that of beta-carotene, canthaxanthin, lutein, alpha-tocopherol, tunaxanthin, and zeaxanthin; plasma astaxanthin concentrations ([3]; at week 8): rapid initial increase; plasma astaxanthin concentrations ([3]; cats fed 1, 5 or 10 mg daily): generally a dose-dependent increase; also recorded: dose-related increase in plasma astaxanthin; plasma astaxanthin ([3]; week 8 through week 12): continued to increase, albeit more gradually; NK cell activity ([4]; week 6): dose-dependent increase in NK cell activity; NK cell activity ([4]; week 6, dogs fed 30 mg): significantly higher than control; NK cell cytotoxic activity ([4]; week 12, 20 mg): higher NK cell cytotoxic activity than control; NK cell cytotoxic activity ([4]; week 16 (trend as week 12: 20 mg higher, 40 mg not)): same trend continued through week 16

Reference: patent US20040151761A1, “Methods and compositions utilizing astaxanthin” (priority 2003, published 2004)
